Laboratory results as given in a polymer gas permeability compilation.

| Structure (SMILES) | CO2 permeability [Barrer] | N2 permeability [Barrer] | O2 permeability [Barrer] | CH4 permeability [Barrer] | H2 permeability [Barrer] |
| --- | --- | --- | --- | --- | --- |
| */C=C/c1ccc(*)cc1[Si](C)(C)C(C)(C)C (repeat unit) | 26 | 1.5 | 6.5 | – | – |
| */C=C/c1ccc(*)cc1[Si](C)(C)CCCC (repeat unit) | 14 | 1.1 | 3.5 | – | – |
| */C=C/c1ccc(*)cc1[Si](C)(C)CCCCCCCC (repeat unit) | 60 | 3.9 | 12 | – | – |
| */C=C/c1ccc(*)cc1[Si](C)(C)CCCCCCCCCCCCCCCCCC (repeat unit) | 61 | 4.5 | 12 | – | – |
| *C(=C(*)c1ccc(CCCC)cc1)c1ccccc1 (repeat unit) | 160 | 11 | 37 | – | – |
| *C(=C(*)c1ccc2c(c1)Cc1ccccc1-2)c1ccc([Si](C)(C)C)cc1 (repeat unit) | 6450 | 950 | 1650 | 2000 | 3100 |
| *C(=C(*)c1ccc2c(c1)Cc1ccccc1-2)c1ccccc1 (repeat unit) | 8500 | 1300 | 2150 | 2400 | 3650 |
| *C(=C(*)c1cccc(O[Si](C)(C)C(C)(C)C)c1)c1ccc(C(C)(C)C)cc1 (repeat unit) | 7200 | 1300 | 2100 | 3300 | 3900 |
| *C(=C(*)c1cccc(O[Si](C)(C)C(C)(C)C)c1)c1ccc([Si](C)(C)C)cc1 (repeat unit) | 2900 | 430 | 810 | 1100 | 1600 |
| *C(=C(*)c1cccc([Si](C)(C)C)c1)c1ccccc1 (repeat unit) | 4700 | 610 | 1200 | 1500 | 2100 |
| *C(=O)c1ccc(C(c2ccc3c(c2)C(=O)n2c-3nc3cc4nc(*)n(*)c4cc32)(C(F)(F)F)C(F)(F)F)cc1* (repeat unit) | 54 | 2.58 | 15.2 | 0.911 | – |
| *C(=O)c1ccc(C2(c3ccc(C(=O)c4ccc(Oc5ccc(C(=O)c6ccc(C(=O)c7ccc(Oc8ccc(*)cc8)cc7)cc6)cc5)cc4)cc3)OC(=O)c3ccccc32)cc1 (repeat unit) | 2.14 | 0.0729 | 0.51 | 0.069 | 7.5 |
| *C(C)=C(*)C(C)C (repeat unit) | 10700 | 1250 | 2700 | 2690 | 5720 |
| *C(C)=C(*)CC(C)C (repeat unit) | 900 | 93 | 245 | 190 | 750 |
| *C(C)=C(*)CCCCC (repeat unit) | 200 | 21 | 57 | 51 | 150 |
| *CC(*)C (repeat unit) | 9.2 | 0.5 | 1.41 | – | – |
| *CC(*)OC1C2CC3CC(C2)CC1C3 (repeat unit) | 25.2 | 1.69 | 6.01 | – | – |
| *CC(*)OC1CC2CC1C1CCCC21 (repeat unit) | 12.6 | 1.2 | 3.06 | – | – |
| *CC(*)OC1CC2CCC1C2 (repeat unit) | 25 | 0.96 | 3.55 | – | – |
| *CC(*)OCc1ccccc1 (repeat unit) | 11.1 | 0.79 | 2.33 | – | – |
| *CC(O)CO* (repeat unit) | 0.012 | – | 0.0038 | – | 0.0228 |
| *CCC(F)(F)C(*)(F)F (repeat unit) | 1.98 | 0.182 | 0.532 | – | – |
| *CCOC(=O)c1ccc2cc(C(=O)O*)ccc2c1 (repeat unit) | 0.131 | – | 0.0132 | – | – |
| *CO* (repeat unit) | 0.45 | 0.024 | 0.09 | – | – |

| Structure (SMILES) | CO2 permeability [Barrer] | N2 permeability [Barrer] | O2 permeability [Barrer] | CH4 permeability [Barrer] | H2 permeability [Barrer] |
| --- | --- | --- | --- | --- | --- |
| *Cc1cc(Cl)c(C*)cc1Cl (repeat unit) | 0.783 | 0.0271 | 0.181 | – | – |
| *Cc1ccc(C*)c(C)c1 (repeat unit) | 0.265 | 0.0157 | 0.0572 | – | 0.994 |
| *Cc1ccc(C*)c(Cl)c1 (repeat unit) | 0.0867 | 0.006 | 0.0456 | – | 0.931 |
| *Cc1ccc(C*)cc1 (repeat unit) | 1.3 | 0.047 | 0.235 | – | 3.2 |
| *NC(=O)c1ccc(C(c2ccc(C(=O)Nc3c(C)cc4c(c3C)C3c5ccccc5C4c4cc(C)c(*)c(C)c43)cc2)(C(F)(F)F)C(F)(F)F)cc1 (repeat unit) | 121 | 5.8 | 27.5 | – | 212 |
| *Nc1ccc(*)cc1OC (repeat unit) | 1.06 | 0.047 | 0.202 | – | 6.04 |
| *Nc1ccc(C(=O)c2ccc(NC(=O)c3cc(C(*)=O)cc(C(C)(C)C)c3)cc2)cc1 (repeat unit) | 4.96 | 0.23 | 1.16 | – | – |
| *Nc1ccc(C(=O)c2ccc(NC(=O)c3cccc(C(*)=O)c3)cc2)cc1 (repeat unit) | 0.32 | – | 0.069 | – | – |
| *c1ccc(Sc2ccc(Sc3ccc(N4C(=O)c5ccc(C(c6ccc7c(c6)C(=O)N(*)C7=O)(C(F)(F)F)C(F)(F)F)cc5C4=O)cc3)cc2)cc1 (repeat unit) | 8.92 | 0.34 | 1.77 | 0.28 | – |
| *c1ccc(Sc2ccc(Sc3ccc(Sc4ccc(Sc5ccc(N6C(=O)c7ccc(C(c8ccc9c(c8)C(=O)N(*)C9=O)(C(F)(F)F)C(F)(F)F)cc7C6=O)cc5)cc4)cc3)cc2)cc1 (repeat unit) | 6.62 | 0.29 | 1.46 | 0.26 | – |
| *c1ccc2c(-c3c(O)ccc4cc(N5C(=O)c6ccc(C(=O)c7ccc8c(c7)C(=O)N(*)C8=O)cc6C5=O)ccc34)c(O)ccc2c1 (repeat unit) | 3.21 | 0.11 | 0.76 | 0.06 | 4.52 |
| *c1ccc2c(-c3c(OC(C)=O)ccc4cc(N5C(=O)c6ccc(C(c7ccc8c(c7)C(=O)N(*)C8=O)(C(F)(F)F)C(F)(F)F)cc6C5=O)ccc34)c(OC(C)=O)ccc2c1 (repeat unit) | 5.05 | 0.23 | 1.19 | 0.12 | 6.56 |
| *c1ccc2c(c1)-c1nc3ccc(-c4ccc5c(c4)nc4n5C(=O)c5cc(C(c6ccc7c(c6)C(=O)N(*)C7=O)(C(F)(F)F)C(F)(F)F)ccc5-4)cc3n1C2=O (repeat unit) | 294 | 13 | 65 | 8.1 | 376 |
| *c1ccc2c(c1)C1(CC2(C)C)CC(C)(C)c2ccc(N3C(=O)c4cc5c(cc4C3=O)C3(CC(C)(C)c4cc6c(cc43)C(=O)N(*)C6=O)CC5(C)C)cc21 (repeat unit) | 1520 | 65 | 208 | 129 | 624 |
| *c1ccc2c(c1)C1c3ccccc3C2c2ccc(N3C(=O)c4ccc(C(c5ccc6c(c5)C(=O)N(*)C6=O)(C(F)(F)F)C(F)(F)F)cc4C3=O)cc21 (repeat unit) | 131 | 5.32 | 28.1 | 3.65 | 212 |
| *c1ccc2c(c1)Cc1cc(N3C(=O)c4ccc(C(c5ccc6c(c5)C(=O)N(*)C6=O)(C(F)(F)F)C(F)(F)F)cc4C3=O)ccc1-2 (repeat unit) | 32.2 | 1.27 | 7.85 | 0.63 | – |
| *c1ccc2c3c(ccc2c1)OC1CC3c2c(ccc3cc(N4C(=O)c5ccc(C(c6ccc7c(c6)C(=O)N(*)C7=O)(C(F)(F)F)C(F)(F)F)cc5C4=O)ccc23)O1 (repeat unit) | 26.3 | 1.1 | 5.85 | 0.6 | 60.2 |
| *c1ccc2c3c(ccc2c1)OC1Oc2ccc4cc(N5C(=O)c6ccc(C(c7ccc8c(c7)C(=O)N(*)C8=O)(C(F)(F)F)C(F)(F)F)cc6C5=O)ccc4c2C31 (repeat unit) | 29.9 | 1.2 | 7.2 | 0.7 | 73 |
| *c1cccc(C(c2cccc(N3C(=O)c4ccc(C(=O)c5ccc6c(c5)C(=O)N(*)C6=O)cc4C3=O)c2)(C(F)(F)F)C(F)(F)F)c1 (repeat unit) | 1.05 | – | – | 0.014 | – |
| *c1cccc(N2C(=O)c3ccc(Oc4ccc5c(c4)C(=O)N(*)C5=O)cc3C2=O)c1 (repeat unit) | 0.301 | 0.012 | 0.081 | 0.0064 | – |
| *c1cccc(Oc2cccc(-n3c(=O)c4cc5c(=O)n(*)c(=O)c5cc4c3=O)c2)c1 (repeat unit) | 0.5 | 0.0181 | 0.13 | 0.008 | 3.6 |
| *c1cccc(Oc2cccc(N3C(=O)c4ccc(C(c5ccc6c(c5)C(=O)N(*)C6=O)(C(F)(F)F)C(F)(F)F)cc4C3=O)c2)c1 (repeat unit) | 2.1 | 0.1 | 0.68 | 0.032 | 14 |
| *c1cccc(S(=O)(=O)c2cccc(N3C(=O)c4ccc(C(c5ccc6c(c5)C(=O)N(*)C6=O)(C(F)(F)F)C(F)(F)F)cc4C3=O)c2)c1 (repeat unit) | 2.34 | 0.095 | 0.73 | 0.0578 | – |
